We go through 18 molecules from PMC4003389, “Identification of pheromone components and their binding affinity to the odorant binding protein CcapOBP83a-2 of the Mediterranean fruit fly, Ceratitis capitata” (Insect Biochemistry and Molecular Biology, 2014).

“And” between values parts separate entries of the source, which are not always exact repeats. Identical values can stand only once. Like-named read-outs stand apart in the source and are kept apart here.

The subject of assay [1] is antennae of male and female C. capitata. The assay is described as follows: Coupled GC–EAG of male volatile extract on medfly antennae. The following applies: for electrophysiological (EAG) response, in words: GC–EAG of male volatile extract; for EAG response: number of females (F) that showed a positive EAG response: female antennae; for EAG response: number of females (F) that showed a positive EAG response / EAG response: number of males (M) that showed a positive EAG response: in a total of five replicates, GC–EAG; for EAG response: number of males (M) that showed a positive EAG response: male antennae. Also noted: species or system Ceratitis capitata. As to the method: Electrical responses to chemical stimuli were recorded from the antennae of both sexes using 4 day-old virgin individuals. Electroantennogram (EAG) recordings were made with Ag–AgCl glass microelectrodes filled with Ringer solution (for 1 L H2O solution: 7.2 g NaCl, 0.37 g KCl, 0.17 g CaCl2, pH 7.3–7.4). The head of a fly (both male and female), anaesthetised by chilling, was excised from the body with a microscalpel and the tip of one of the two arista was cut off with micro-scissors. The indifferent electrode was inserted in the head (from the base to the top-frontal part) and the recording electrode was positioned over the cut arista. Signals were passed through a high impedance amplifier (UN-06, Hilversum, The Netherlands) and analysed using a customised software package (Syntech). […] The oven was maintained at 30 °C for 2 min and then programmed for increments at 5 °C min^−1 to 250 °C. The carrier gas was helium. Outputs from the EAG amplifier and the FID were monitored simultaneously and analysed using the Syntech software package. […] The stimulus (2 s duration) was delivered into a purified airstream (1 l/min) flowing continuously over the preparation using a stimulus controller (Syntech CS02). Samples (10 μl) of the standard solution of test compounds (1 mg/ml in redistilled hexane) were applied in the cartridge. The control stimulus was hexane (10 μl). Five replicates were performed for each sample using antennae from 5 different flies.

The target in assay [2] is CcapOBP83a-2 (Ceratitis capitata, UniProt W8W3U3). Briefly: biochemical. Type of assay: binding. The conditions noted are these: for IC50: read-out: IC50 (concentration of ligand halving the initial fluorescence level); for Ki: read-out: Ki (dissociation constant). The protocol: The 1-NPN/protein mixture was excited at 337 nm and the emission was recorded between 380 and 450 nm on a Perkin Elmer LS 55 Fluorescence spectrometer (Cambridge–UK) at 25 °C in a right angle configuration with a 1 cm light path quartz cuvette. The excitation and emission slits were both 5 nm. Data were recorded and graphed using FL WinLab Software (Perkin–Elmer). […] Analyses were performed by nonlinear regression curve fitting using GraphPad Prism 5 (GraphPad Software, Inc, La Jolla, USA).
Sequence of CcapOBP83a-2 (W8W3U3 entry or part of it): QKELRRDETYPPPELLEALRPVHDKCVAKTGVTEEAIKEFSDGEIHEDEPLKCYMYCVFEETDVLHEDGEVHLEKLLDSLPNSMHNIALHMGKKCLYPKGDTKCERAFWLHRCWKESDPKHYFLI

[3] abbreviates: first fraction, ligand 50 μM, 1-NPN 3 μM.
The mark [4] stands for this setting: second fraction, ligand 50 μM, 1-NPN 3 μM.

Regarding `CCC(C)C(C)=O` (racemic) [(RS)-3-Methylpentan-2-one], in assay [1], the “electrophysiological (EAG) response, in words” value (from here on “electrophysiological”) was “response only on the female antennae”; the “EAG response: number of females (F) that showed a positive EAG response” value (“EAG response: number of females” for short) worked out at 3; the “EAG response: number of males (M) that showed a positive EAG response” value (“EAG response: number of males” for short) was found to be 0. Moreover, the “Int (end point fluorescent level): fluorescence intensity after the maximum quantity of chemical was added” value (shortened to “Int (end point fluorescent level)”) in assay [2] (setting [3]) is 65.3. Besides, the “Int (end point fluorescent level)” value in assay [2] (setting [4]) was found to be 58.3.

On to `C=CC(C)(O)CCC=C(C)C` (racemic) [(RS)-Linalool], for which, in assay [1], the “EAG response: number of females” value is reported as 3 and the “EAG response: number of males” value is on record as 4. The “Int (end point fluorescent level)” value in assay [2] (setting [3]) was 66.6. In addition, in assay [2] (second fraction, 1-NPN 3 μM), the IC50 came to 41000 nM and the Ki was found to be 6100 nM. The “Int (end point fluorescent level)” value in assay [2] (setting [4]) was 44.7.

As for `CC(C)CCO` [3-Methylbutan-1-ol], in assay [1], the “EAG response: number of females” value is recorded as “M4F4” and the “EAG response: number of males” value is “M4F4”. In addition, the “Int (end point fluorescent level)” value in assay [2] was 63.4 and 55.6.

For the molecule `C=C/C(C)=C/CC=C(C)C` [(E)-Ocimene], in assay [1], the “electrophysiological” value is reported as “response only on the female antennae”; the “EAG response: number of females” value is 4; the “EAG response: number of males” value worked out at 0. Besides, in assay [2] (setting [3]), the “Int (end point fluorescent level)” value is recorded as 66.3. In addition, in assay [2] (second fraction, 1-NPN 3 μM), the IC50 was 50000 nM; the Ki is 8200 nM and 8170 nM. In addition, the “Int (end point fluorescent level)” value in assay [2] (setting [4]) is listed as 50.7.

`C=CC(=C)CC/C=C(\C)CCC=C(C)C` [(E)-β-Farnesene, reference compound]: the “binding activity, in words” value in assay [2] (first fraction) is given as “limited degree of binding”. Also, the Ki was 1400 nM in assay [2] (first fraction, 1-NPN 3 μM) and 200 nM in assay [2] (second fraction, 1-NPN 3 μM). The “Int (end point fluorescent level)” value was found to be 75.1 in assay [2] (setting [3]) and 33.6 in assay [2] (setting [4]).

On to `C=C/C(C)=C/C/C=C(\C)CCC=C(C)C` [(E,E)-α-Farnesene], for which, in assay [1], the “electrophysiological” value is “small responses in both male and female flies”; the “EAG response: number of females” value was 3; the “EAG response: number of males” value is 2. Besides, in assay [2] (first fraction, 1-NPN 3 μM), the inhibition constant (Ki) came out at 6560 nM. The “Int (end point fluorescent level)” value in assay [2] (setting [3]) is listed as 34.3. Also, in assay [2] (second fraction, 1-NPN 3 μM), the IC50 was 1200 nM; the Ki was 100 nM and 133 nM. The “Int (end point fluorescent level)” value in assay [2] (setting [4]) is 14.4.

Turning to `C[C@@H](O)[C@@H](C)O` [(RR)-2,3-Butanediol], in assay [1], the “EAG response: number of females” value was found to be 3 and the “EAG response: number of males” value was found to be 2. The “Int (end point fluorescent level)” value in assay [2] (setting [3]) stood at 62.9. The “Int (end point fluorescent level)” value in assay [2] (setting [4]) came out at 58.3.

As for `C=C/C(C)=C\CC=C(C)C` [(Z)-Ocimene], in assay [1], the “EAG response: number of females” value was “M4F4”. Moreover, the “EAG response: number of males” value in assay [1] is “M4F4”. Further, the inhibition constant Ki in assay [2] (first fraction, 1-NPN 3 μM) was 4520 nM; in assay [2] (second fraction, 1-NPN 3 μM) it was 1900 nM and 1890 nM. Also, the “Int (end point fluorescent level)” value is listed as 49.9 in assay [2] (setting [3]) and 23.4 in assay [2] (setting [4]). Further, the IC50 in assay [2] (second fraction, 1-NPN 3 μM) was determined as 13500 nM.

Take `CC1CCOC1=O` (centres unmarked) [Dihydro-3-methyl-2-(3H)-furanone]: the “EAG response: number of females” value in assay [1] is reported as 4. In addition, the “EAG response: number of males” value in assay [1] is on record as 3. Further, the entries for the “Int (end point fluorescent level)” value in assay [2] (setting [3]) and in assay [2] (setting [4]) were 66.5 and 58.1, respectively.

With `CC/C=C/CC(=O)OCC` [Ethyl (E)-3-hexenoate], in assay [1], the “EAG response: number of females” value is reported as “M4F4” and the “EAG response: number of males” value is “M4F4”. In addition, in assay [2] (setting [3]), the “Int (end point fluorescent level)” value is recorded as 68.5. In addition, the “Int (end point fluorescent level)” value in assay [2] (setting [4]) stood at 51.5.

For `CCCC/C=C/CC(=O)OCC` [Ethyl (E)-3-octenoate], in assay [1], the “EAG response: number of females” value is given as “M4F4” and the “EAG response: number of males” value is on record as “M4F4”. In addition, in assay [2] (setting [3]), the “Int (end point fluorescent level)” value amounted to 55.6. For the same molecule, in assay [2] (second fraction, 1-NPN 3 μM), the IC50 was 18000 nM and the Ki was 2410 nM. The “Int (end point fluorescent level)” value in assay [2] (setting [4]) is recorded as 24.2.

As for `CCCCCCCC(=O)OCC` [Ethyl octanoate, reference compound], the “Int (end point fluorescent level)” value in assay [2] (setting [3]) is 66.3. Further, in assay [2] (second fraction, 1-NPN 3 μM), the IC50 turned out to be 15000 nM; the Ki was 2000 nM and 1960 nM. Further, the “Int (end point fluorescent level)” value in assay [2] (setting [4]) was 26.1.

Turning to `CC(=O)OC/C=C(\C)CCC=C(C)C` [Geranyl acetate], in assay [1], the “EAG response: number of females” value was 4 and the “EAG response: number of males” value is 5. Besides, the “Int (end point fluorescent level)” value in assay [2] (setting [3]) is reported as 70.4. Also, in assay [2] (second fraction, 1-NPN 3 μM), the IC50 was found to be 6500 nM; the Ki was 900 nM and 901 nM. For the same molecule, in assay [2] (setting [4]), the “Int (end point fluorescent level)” value stood at 17.4.

Turning to `c1ccc2[nH]ccc2c1` [Indole], in assay [1], the “EAG response: number of females” value is “M3F3” and the “EAG response: number of males” value is “M3F3”. In addition, in assay [2] (setting [3]), the “Int (end point fluorescent level)” value came out at 66.2. In addition, in assay [2] (setting [4]), the “Int (end point fluorescent level)” value was determined as 60.1.

Take `C=CCc1ccc(OC)c(OC)c1` [Methyleugenol, reference compound]: the “Int (end point fluorescent level)” value in assay [2] (setting [3]) came to 61.9; in assay [2] (setting [4]), 46.0. Besides, the IC50 in assay [2] (second fraction, 1-NPN 3 μM) worked out at 43000 nM. Further, the Ki in assay [2] (second fraction, 1-NPN 3 μM) is 4640 nM.

Take `C=CC(=C)CCC=C(C)C` [Myrcene]: in assay [1], the “electrophysiological” value is recorded as “response only on the female antennae”; the “EAG response: number of females” value is listed as 4; the “EAG response: number of males” value is 0. For the same molecule, the “Int (end point fluorescent level)” value in assay [2] (setting [3]) amounted to 77.5. For the same molecule, in assay [2] (second fraction, 1-NPN 3 μM), the IC50 turned out to be 10000 nM; the Ki is 900 nM and 879 nM. The “Int (end point fluorescent level)” value in assay [2] (setting [4]) is 39.6.

Regarding `OC1COCC1O` (centres unmarked) [Tetrahydro-3,4-furandiol], in assay [1], the “EAG response: number of females” value is 4 and the “EAG response: number of males” value came to 2. The “Int (end point fluorescent level)” value in assay [2] (setting [3]) was 66.2. In addition, the “Int (end point fluorescent level)” value in assay [2] (setting [4]) is 59.9.

Regarding `CC1CC(Cl)CCC1C(=O)OC(C)(C)C` (centres unmarked) [Trimedlure, t-Butyl-2-methyl-4-chlorocyclohexanecarboxylate, reference compound], in assay [2] (setting [3]), the “Int (end point fluorescent level)” value was determined as 66.0. In addition, in assay [2] (second fraction, 1-NPN 3 μM), the IC50 worked out at 2100 nM; the inhibition constant (Ki) was 300 nM and 322 nM. Besides, in assay [2] (setting [4]), the “Int (end point fluorescent level)” value stood at 9.8.

For orientation: Ki means the dissociation constant of the complex between target and ligand, obtained from inhibition or displacement.
